Publication PMC9025336 (Antibiotics, 2022)
In brackets after ≈: the same amount, converted by molar mass. Like-named read-outs stand apart in the source and are kept apart here. Ends that are not written are not given here. Peptide text beside a SMILES is read from it.

Columns and labels:
[1] = system: E. coli BL21 (DE3) RIL ribosome extract; conditions: values published for E. coli BL21 (DE3) RIL ribosome extract; read-out: Kd (printed in column Ros); cited from earlier work
Excerpt: Table 2 Antibacterial activities, dissociation (Kd), and inhibition constants (Ki) of ribosome binding obtained for all PrAMPs included in the current study for E. coli strains BW25113 (BW) and Rosetta DE3 pLysS (Ros). | column: Kd [µmol/L] ** / Ros

[2] = system: E. coli BL21 (DE3) RIL ribosome extract; conditions: values published for E. coli BL21 (DE3) RIL ribosome extract; read-out: Ki, cf-Api137; cited from earlier work
[3] = system: E. coli Rosetta DE3 pLysS; test: MIC, liquid broth microdilution; assay type: cell-based, Escherichia coli; conditions: 25% MHBII medium, 7.5 × 10^6 CFU/mL, 37 °C, 20 ± 2 h, turbidity 600 nm, at least twice in triplicate
Protocol: (§1) The minimal inhibitory concentrations (MIC) were determined at least twice in triplicate using a liquid broth microdilution assay in sterile 96-well plates and a total volume of 100 μL per well. Aqueous peptide solutions were serially 2-fold diluted in 25% MHBII or 33% TSB medium in a volume of 50 µL. An overnight culture was diluted in 25% MHBII or 33% TSB medium to 1.5 × 10^7 CFU/mL, and an aliquot of 50 μL was added to each well. The final cell count in each well was 7.5 × 10^6 CFU/mL. The plates were incubated at 37 °C for 20 ± 2 h. The turbidity of each well was measured at a wavelength of 600 nm. The MIC was defined as the lowest peptide concentration where the turbidity was identical to medium only.

[4] = system: E. coli BL21 (DE3) RIL ribosome extract; conditions: values published for E. coli BL21 (DE3) RIL ribosome extract; read-out: Ki, cf-Onc112; cited from earlier work
Excerpt: Table 2 Antibacterial activities, dissociation (Kd), and inhibition constants (Ki) of ribosome binding obtained for all PrAMPs included in the current study for E. coli strains BW25113 (BW) and Rosetta DE3 pLysS (Ros). | column: Ki [µmol/L] *** / cf-Onc112

E. coli BW25113 = assay type: cell-based, Escherichia coli; conditions: BW25113, 2 h
Protocol: as §1, with “The plates were incubated at 37 °C for 20 ± 2 h.” left out

[5] = target: 70S ribosome extract of E. coli BW25113 (E. coli BW25113 (endogenous)); test: fluorescence polarisation; competition: unlabeled peptide (2-fold series from 656 µmol/L) pre-incubated with BW25113 ribosome extract (28 °C, 90 min), then cf-Onc112 (10 µL, 80 nmol/L) added (28 °C, 90 min); ribosome preparation buffer; Ki calculated from IC50
[6] = target: 70S ribosome extract of E. coli BW25113 (E. coli BW25113 (endogenous)); test: fluorescence polarisation; competition: unlabeled peptide (2-fold series from 656 µmol/L) pre-incubated with BW25113 ribosome extract (28 °C, 90 min), then cf-Api137 (10 µL, 80 nmol/L) added (28 °C, 90 min); ribosome preparation buffer; Ki calculated from IC50
[7] = target: 70S ribosome extract of E. coli BW25113 (E. coli BW25113 (endogenous))
[8] = lysates of E. coli Rosetta pLysS; conditions: 37 °C, up to 24 h
[9] = lysates of E. coli BW25113; conditions: E. coli BW25113, 37 °C, up to 24 h
[10] = target: 70S ribosome extract of E. coli BW25113 (E. coli BW25113 (endogenous)); remark: listed apart in the source

| Molecule | Ki [5] | Ki [6] | fragment found [8] | fragment found [9] | further results |
| --- | --- | --- | --- | --- | --- |
| CC[C@H](C)[C@H](NC(=O)[C@@H]1CCCN1C(=O)[C@H](CCCNC(=N)N)NC(=O)[C@@H]1CCCN1C(=O)[C@H](Cc1c[nH]cn1)NC(=O)[C@H](CO)NC(=O)[C@@H](NC(=O)[C@@H]1CCCN1C(=O)[C@H](CCCNC(=N)N)NC(=O)[C@@H]1CCCN1C(=O)[C@H](CO)NC(=O)[C@H](Cc1ccc(O)cc1)NC(=O)[C@@H]1CCCN1C(=O)[C@H](CCCNC(=N)N)NC(=O)[C@@H]1CCCN1C(=O)[C@H](CCCCN)NC(=O)CN)[C@@H](C)O)C(=O)N[C@@H](CCCNC(=N)N)C(=O)N[C@H](C(=O)O)C(C)C [Drosocin] (H-GKPRPYSPRPTSHPRPIRV-OH; N-terminus assumed) |  |  |  |  | Kd [1]: 1080 nM; Ki [2]: 9 nM; MIC, Ros [3]: 8 µg/mL (≈ 3.64 µM); Ki [4]: 1780 nM; MIC, BW (E. coli BW25113): 128 µg/mL (≈ 58.2 µM) |
| Api137 (peptide) | 219 nM | 2 nM |  |  | inhibition of in vitro translation of GFP (PureExpress Delta RF123 kit with the kit's own ribosomes, RF1 added), GFP fluorescence relative to no PrAMP; peptide 0.05, 5 and 50 µmol/L [7]: 77% |
| GNNRPIYIPRPRPPHPRPIRV-OH |  |  | Api805 1-16 (GNNRPIYIPRPRPPHP-OH), major | Api805 1-16 (GNNRPIYIPRPRPPHP-OH), major |  |
| gu-ONNRPVYIPRPRPPHPRL-OH |  |  | Api137 1-17 (Gu-ONNRPVYIPRPRPPHPR-OH), major | Api137 1-17 (Gu-ONNRPVYIPRPRPPHPR-OH), major |  |
| GNNRPIYIPRPRPPHPRPIRV-OH [Api805] | 489 nM | 1070 nM |  |  | inhibition of in vitro translation of GFP (PureExpress Delta RF123 kit with the kit's own ribosomes, RF1 added), GFP fluorescence relative to no PrAMP; peptide 0.05, 5 and 50 µmol/L [10]: 52%; inhibition of in vitro translation of GFP (PureExpress Delta RF123 kit with the kit's own ribosomes, no release factor), GFP fluorescence relative to no PrAMP; peptide 0.05, 5 and 50 µmol/L [10]: 38% |
